From patent EP1933809B1, “COMPOSITIONS FOR NASAL DELIVERY” (YISSUM RESEARCH DEVELOPMENT COMPANY OF THE HEBREW …, priority 2005, dated 2007)

Assays:
Plasmodium berghei anka = experiment: Treatment and prophylaxis of malaria in infected mice, model of cerebral malaria (Example 12); type: in vivo; conditions: 10mg DHA/kg/day, ICR female mice; for mice survived: treatment regimen (from day 2 after infection, 4 days)
Method: Experiments were carried out in vivo in ICR female mice infected with 10^6 erythrocytes parasitized Plasmodium berghei anka, a model of cerebral malaria with striking similarities to the human disease. Infections were monitored using giemsa-stained thin blood smears prepared from tail blood. The animals were treated under isoflurane anesthesia with 10mg DHA/kg/day in a two divided daily doses by two dosage regimens: prophylaxis regimen- starting at 2 days before the infection for a total of 6 days; treatment regimen- starting on day 2 after infection (parasitemia first detected) for a total of 4 days. Mice were either treated by the intranasal administration or by the i.p. injection containing the same DHA doses. Controls included placebo (delivery carrier only) and untreated infected animals. Experiments were conducted in accordance with institutional guidelines for animal care.

Female Balb/c mice = experiment: Writhing test in mice, writhing induced by IP acetic acid (Example 13); type: in vivo
Method: Experiments 1: The experiments were carried out on Female Balb/c mice (21-26g). Two experimental groups were used: control (untreated) (n=6) and treated group (n=6). […] Half an hour after nasal application, each animal in treated and control groups was IP administered with acetic acid 0.6% (10 ml/kg) and individually housed in cage with a smooth flat floor. Antinociception effect was recorded by counting the number of writhes 5 minutes after injection of acetic acid for period of 10 minutes. A writhe is indicated by abdominal constriction and stretching of at least one hind limb.
Experiment 2: The experiment was carried out on Female Balb/c mice (21-26g). Two experimental groups were used: control (untreated) (n=6) and treated group (n=6). […] Immediately after nasal application (t=0), each animal in treated and control groups was IP administered with acetic acid 0.6% (10 ml/kg) and individually housed in cage with a smooth flat floor. Antinociception was recorded by counting the number of writhes 5 minutes after injection of acetic acid for period of 10 minutes.
Experiment 3: The experiments were carried out on Female Balb/c mice (21-26g). Three experimental groups were used: control (untreated) (n=4), mice intranasally administered with the Diazepam IN vesicular composition (2.8µl in each nostril = diazepam dose of 5mg/kg animal) (n=4), and mice subcutaneously administered with the Diazepam solution 0.125 % at dose of 5mg/kg animal (n=4). […] Simultaneously, each animal in treated and control groups was IP administered with acetic acid 0.6% (10 ml/kg) and individually housed in cage with a smooth flat floor. Antinociception was recorded by counting the number of writhes 5 minutes after injection of acetic acid for period of 10 minutes.

nasal mucosa = experiment: Transport of fluorescent probe across nasal mucosa after in vivo administration, CLS microscopy (Example 15); conditions: composition of the invention with 0.05% Rhodamine B, 100µL to the right nostril of rats, 1/2 hour
Method: A stock solution of Rhodamine B (2mg/mL) was prepared in water. 50mg of phospholipid were dissolved in 200 mg ethanol. […] The composition is stirred for additional 5 min. The composition is described in Table IV.

C[C@H]1[C@@H](O)O[C@@H]2O[C@@]3(C)CC[C@H]4[C@H](C)CC[C@@H]1[C@@]24OO3 [DHA, dihydroartemisinin]
mice in which parasites appeared (Plasmodium berghei anka; prophylaxis regimen, i.p. injection): 74% | mice survived (Plasmodium berghei anka; i.p. injection): 19% | mice survived (Plasmodium berghei anka; intranasal): 75%

CN1C(=O)CN=C(c2ccccc2)c2cc(Cl)ccc21 [diazepam, 7-chloro-1,3-dihydro-1-methyl-5-phenyl-2H-1,4-benzo-diazepin-2-one]
writhing episodes (number of writhes) (Female Balb/c mice; Experiment 1: intranasal vesicular composition, 5mg/kg, 0.5 h before acetic acid injection, versus untreated control): efficiently prevented writhing episodes | writhing episodes (number of writhes) (Female Balb/c mice; Experiment 2: intranasal vesicular composition, 5mg/kg, simultaneously with acetic acid injection, versus untreated control): efficient in treating writhing episodes | writhing episodes (number of writhes) (Female Balb/c mice; Experiment 3: intranasal vesicular composition 5mg/kg versus subcutaneous diazepam solution 5mg/kg, simultaneously with acetic acid injection): significantly more efficient in treating writhing episodes as compared to the same dose of the drug administered subcutaneously

CCN(CC)c1ccc2c(-c3ccccc3C(=O)O)c3ccc(=[N+](CC)CC)cc-3oc2c1.[Cl-] [rhodamine B, Rhodamine B]
transport across the nasal mucosa (nasal mucosa): efficiently delivered
